Measurements as given in patent publication US20100297692A1, “REACTION MEDIUM FOR DETECTING AND/OR IDENTTIFYING STAPHYLOCCOUS AUREUS” (BIOMERIEUX, priority 2007, published 2010).

Columns and labels:
[1] = system: Coagulase-negative Staphylococci; assay: β-D-ribosidase substrates in Columbia agar, colored or fluorescent colonies; format: cell-based, Staphylococcus spp; conditions: Coagulase-negative Staphylococci, 400 mg/L + ammoniacal iron citrate 100 mg/l
Procedure: (§1) The media hereinafter were prepared in 200 ml of a Columbia agar base (Oxoid), in combination with the chromogenic β-D-ribosidase substrates. The various substrates and also the concentrations and the additives used in the media are described in Table 1 below:
(§2) The β-D-ribosidase substrates are solubilized in DMSO and added to the media so as to obtain the concentrations indicated in Table 1.
(§3) 191 bacterial strains were inoculated onto each of the media using a suspension at 0.5 MacFarland diluted to 1/1000. The dishes were incubated at 37° C. and then read.
(§4) The media were distributed into Petri dishes, then inoculated with approximately 100 000 CFU, then incubated at 37° C. for 48 h. The colonies formed were examined visually after incubation times of 18, 24 and 48 hours.
(§5) The stock collection of 191 strains comprised: […], 48 Staphylococcus spp, 61 Enterococcus spp and 3 alpha-hemolytic Streptococcus.

Coag neg = assay: Catechol-β-D-riboside and X-β-D-riboside on a broad panel of Staphylococcus spp; format: cell-based; conditions: GTS medium, 300 mg/l substrate, 500 mg/l ammoniacal iron citrate
Procedure: (§6) Catechol-β-D-riboside: A GTS medium (bioMérieux) supplemented with 300 mg/l of catechol-β-D-riboside, then autoclaved, and with 500 mg/l of ammoniacal iron citrate was used and distributed into Petri dishes 55 mm in diameter.
(§7) X-β-D-riboside: A modified Chapman medium, without NaCl, autoclaved and supplemented with 60 mg/l of X-β-D-riboside, was used and distributed into Petri dishes 55 mm in diameter.
For the two media, the inoculation was carried out using precultures prepared for 24 h at 37° C. A suspension in physiological saline at 0.5 McF was prepared and then each strain was inoculated onto a dish using a 10 μl calibrated loop.
(§8) The readings were carried out after 24 and 48 hours of incubation at 37° C.
(§9) In total, […] were tested: 34 S. aureus, including 25 MRSAs, and 46 other species of Staphylococcus (including S. schleiferi; S. capitis; S. hyicus; S. intermedius; S. haemolyticus; S. auricularis; S. hominis; S. warneri; S. chromogenes; S. cohnii; S. epidermidis; S. sciuri; S. xylosus; S. saprophyticus).

Enterococci = assay: β-D-ribosidase substrates in Columbia agar, colored or fluorescent colonies; format: cell-based, Enterococcus spp; conditions: 400 mg/L + ammoniacal iron citrate 100 mg/l
Procedure: as §1, §2, §3, §4, §5

Micrococcus luteus = assay: as above; format: cell-based; conditions: 400 mg/L + ammoniacal iron citrate 100 mg/l
Procedure: [The procedure below names another organism; the source lists this organism under the same test.] as §1, §2, §3, §4, §5

S. aureus (MRSA) = assay: as above; format: cell-based, Staphylococcus aureus; conditions: 400 mg/L + ammoniacal iron citrate 100 mg/l
Procedure: as §1, §2, §3, §4, §5

S. aureus (MSSA) = assay: as above; format: cell-based, Staphylococcus aureus; conditions: 400 mg/L + ammoniacal iron citrate 100 mg/l
Procedure: as §1, §2, §3, §4, §5

S aureus (MRSA and MSSA) = assay: Catechol-β-D-riboside and X-β-D-riboside on a broad panel of Staphylococcus spp; format: cell-based; conditions: GTS medium, 300 mg/l substrate, 500 mg/l ammoniacal iron citrate
Procedure: as §6, §7
For the two media, the inoculation was carried out using precultures prepared for 24 h at 37° C. A suspension in physiological saline at 0.5 McF was prepared and then each strain was inoculated onto a dish using a 10 μl calibrated loop. […]
as §9

[2] = system: Alpha-hemolytic streptococci; assay: β-D-ribosidase substrates in Columbia agar, colored or fluorescent colonies; format: cell-based, alpha-hemolytic Streptococcus; conditions: 400 mg/L + ammoniacal iron citrate 100 mg/l
Procedure: as §1, §2, §3, §4, §5

Coagulase-negative = assay: Catechol-β-D-riboside in a liquid medium, coloration; format: cell-based
Procedure: (§10) The medium hereinafter had the same composition as a chromID S. aureus base (bioMérieux), with no selective agents nor agar, so as to obtain a liquid medium. The substrates and inducers were replaced, before autoclaving, with […] of catechol-β-D-riboside, solubilized in DMSO, and with ammoniacal iron citrate at 500 mg/l. The medium was then distributed into tubes in a proportion of 1.5 ml/tube.
For this medium, the inoculation was carried out using precultures prepared for 24 h at 37° C. A suspension of physiological saline at 0.5 McF was prepared and then each tube was inoculated with 10 μl of bacterial suspension.
as §8
(§11) In total, 11 staphylococcus strains were tested; 5 S. aureus and 6 of other species of the Staphylococcus genus (coagulase-negative).

[3] = system: S. aureus (MRSA and MSSA); assay: as above; format: cell-based, Staphylococcus aureus
Procedure: as §10
For this medium, the inoculation was carried out using precultures prepared for 24 h at 37° C. A suspension of physiological saline at 0.5 McF was prepared and then each tube was inoculated with 10 μl of bacterial suspension. […]
as §11

% of strains producing colored or fluorescent colonies (Enterococci; 18 h): 2% | % of strains producing colored or fluorescent colonies (Enterococci; 24 h): 2% | % of strains producing colored or fluorescent colonies (Enterococci; 48 h): 2% | % of strains producing colored or fluorescent colonies (Micrococcus luteus; 18 h): 0% | % of strains producing colored or fluorescent colonies (Micrococcus luteus; 24 h): 0% | % of strains producing colored or fluorescent colonies (Micrococcus luteus; 48 h): 0% | % of strains producing colored or fluorescent colonies (S. aureus (MRSA); 18 h): 100% | % of strains producing colored or fluorescent colonies (S. aureus (MRSA); 24 h): 100% | % of strains producing colored or fluorescent colonies (S. aureus (MRSA); 48 h): 100% | % of strains producing colored or fluorescent colonies (S. aureus (MSSA); 18 h): 100% | % of strains producing colored or fluorescent colonies (S. aureus (MSSA); 24 h): 100% | % of strains producing colored or fluorescent colonies (S. aureus (MSSA); 48 h): 100% | Number of strains producing a coloration, Positive at 18 h (Coagulase-negative; 300 ml/g catechol-β-D-riboside, ammoniacal iron citrate 500 mg/l, coagulase-negative, 18 h): 0/6 | Number of strains producing a coloration, Positive at 24 h (Coagulase-negative; 300 ml/g catechol-β-D-riboside, ammoniacal iron citrate 500 mg/l, coagulase-negative, 24 h): 0/6 | Number of strains producing a coloration, Positive at 48 h (Coagulase-negative; 300 ml/g catechol-β-D-riboside, ammoniacal iron citrate 500 mg/l, coagulase-negative, 48 h): 1/6
SMILES: OC[C@H]1O[C@@H](Oc2ccccc2O)[C@H](O)[C@@H]1O [Catechol-β-riboside, 2-Hydroxyphenyl-beta-D-riboside]
% of strains producing colored or fluorescent colonies ([1]; 18 h): 3% | % of strains producing colored or fluorescent colonies ([1]; 24 h): 3% | % of strains producing colored or fluorescent colonies ([1]; 48 h): 3% | Number of strains producing a coloration/total number of strains, positive at 18 h (Coag neg; 18 h): 10/46 | Number of strains producing a coloration/total number of strains, positive at 24 h (Coag neg; 24 h): 14/46 | Number of strains producing a coloration/total number of strains, positive at 48 h (Coag neg; 48 h): 14/46 | Number of strains producing a coloration/total number of strains, positive at 18 h (S aureus (MRSA and MSSA); 18 h): 19/34 | Number of strains producing a coloration/total number of strains, positive at 24 h (S aureus (MRSA and MSSA); 24 h): 31/34 | Number of strains producing a coloration/total number of strains, positive at 48 h (S aureus (MRSA and MSSA); 48 h): 34/34 | % of strains producing colored or fluorescent colonies ([2]; 18 h): 0% | % of strains producing colored or fluorescent colonies ([2]; 24 h): 0% | % of strains producing colored or fluorescent colonies ([2]; 48 h): 0% | detection of the other species of the Staphylococcus genus (Coagulase-negative; from 18 hours onward): none of the other species of the Staphylococcus genus were detected | Number of strains producing a coloration, Positive at 18 h ([3]; 300 ml/g catechol-β-D-riboside, ammoniacal iron citrate 500 mg/l, S. aureus, 18 h): 5/5 | Number of strains producing a coloration, Positive at 24 h ([3]; 300 ml/g catechol-β-D-riboside, ammoniacal iron citrate 500 mg/l, S. aureus, 24 h): 5/5 | Number of strains producing a coloration, Positive at 48 h ([3]; 300 ml/g catechol-β-D-riboside, ammoniacal iron citrate 500 mg/l, S. aureus, 48 h): 5/5 | coloration for S. aureus ([3]; from 18 hours onward): 100%
